Calls of active or inactive are those of the source. The rule behind the calls is not given here.
tested on: T-24; assay: Induction of alpha tubulin acetylation in human T24 cells at 1 uM preincubated 16 hrs before whole-cell lysate by Western blot analysis; type: functional, cell-based

Compound	Activity
O=C(NO)c1ccc(CN2c3ccccc3NC(=O)[C@H]2Cc2cccs2)cc1	Active

target: Histone deacetylase 2 (Homo sapiens, UniProt Q92769); assay: not given
Sequence (Q92769 whole entry): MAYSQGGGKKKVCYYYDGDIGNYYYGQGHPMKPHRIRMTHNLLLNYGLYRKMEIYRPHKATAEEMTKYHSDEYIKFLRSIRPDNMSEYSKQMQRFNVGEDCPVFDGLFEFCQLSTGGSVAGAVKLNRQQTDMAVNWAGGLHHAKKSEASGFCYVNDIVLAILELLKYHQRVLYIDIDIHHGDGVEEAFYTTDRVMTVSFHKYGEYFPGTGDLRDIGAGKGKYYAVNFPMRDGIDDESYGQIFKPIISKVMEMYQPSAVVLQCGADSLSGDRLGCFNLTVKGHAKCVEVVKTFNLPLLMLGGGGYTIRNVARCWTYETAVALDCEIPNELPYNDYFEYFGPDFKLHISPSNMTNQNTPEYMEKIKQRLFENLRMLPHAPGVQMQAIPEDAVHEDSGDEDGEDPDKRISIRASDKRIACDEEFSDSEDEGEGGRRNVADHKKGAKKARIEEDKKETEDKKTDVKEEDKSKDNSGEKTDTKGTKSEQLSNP

Compound	IC50 [nM]
O=C(NO)c1ccc(CN2C(=O)CNC(=O)[C@H]2Cc2ccccc2)cc1	5540
O=C(NO)c1ccc(CN2c3ccccc3NC(=O)[C@H]2Cc2ccccc2)cc1	260
O=C(NO)c1ccc(CN2c3ccccc3NC(=O)[C@@H]2Cc2ccccc2)cc1	460
O=C(NO)c1ccc(CN2c3ccccc3NC(=O)[C@H]2CCc2ccccc2)cc1	520
O=C(NO)c1ccc(CN2c3ccccc3NC(=O)[C@@H]2Cc2cccs2)cc1	1480
O=C(NO)c1ccc(CN2c3ccccc3NC(=O)[C@H]2Cc2ccc(O)cc2)cc1	330
O=C(NO)c1ccc(CN2c3ccccc3NC(=O)[C@H]2Cc2ccc(F)c(F)c2)cc1	460
O=C(NO)c1ccc(CN2C(=O)CNC(=O)[C@H]2Cc2c[nH]c3ccccc23)cc1	1810
O=C(NO)c1ccc(CN2c3ccccc3NC(=O)[C@H]2Cc2cccs2)cc1	870
CC(C)(C)Oc1ccc(C[C@@H]2C(=O)Nc3ccccc3N2Cc2ccc(C(=O)NO)cc2)cc1	1440
O=C1CN(Cc2ccc(C(=O)NO)cc2)c2ccccc2N1	560
CC(C)(C)OC(=O)NCCCC[C@@H]1C(=O)Nc2ccccc2N1Cc1ccc(C(=O)NO)cc1	1480
O=C(NO)c1ccc(CN2C(=O)CNC(=O)[C@H]2Cc2cccs2)cc1	3470

species: Homo sapiens; assay: Selectivity ratio of IC50 for human recombinant histone deacetylase 2 to IC50 for human recombinant histone deacetylase 6

Compound	Ratio IC50
O=C(NO)c1ccc(CN2C(=O)CNC(=O)[C@H]2Cc2ccccc2)cc1	33
O=C(NO)c1ccc(CN2c3ccccc3NC(=O)[C@H]2Cc2ccccc2)cc1	26
O=C(NO)c1ccc(CN2c3ccccc3NC(=O)[C@@H]2Cc2ccccc2)cc1	2
O=C(NO)c1ccc(CN2c3ccccc3NC(=O)[C@H]2CCc2ccccc2)cc1	40
O=C(NO)c1ccc(CN2c3ccccc3NC(=O)[C@@H]2Cc2cccs2)cc1	5
O=C(NO)c1ccc(CN2c3ccccc3NC(=O)[C@H]2Cc2ccc(O)cc2)cc1	41
O=C(NO)c1ccc(CN2c3ccccc3NC(=O)[C@H]2Cc2ccc(F)c(F)c2)cc1	11
O=C(NO)c1ccc(CN2C(=O)CNC(=O)[C@H]2Cc2c[nH]c3ccccc23)cc1	17
O=C(NO)c1ccc(CN2c3ccccc3NC(=O)[C@H]2Cc2cccs2)cc1	21
CC(C)(C)Oc1ccc(C[C@@H]2C(=O)Nc3ccccc3N2Cc2ccc(C(=O)NO)cc2)cc1	28
O=C1CN(Cc2ccc(C(=O)NO)cc2)c2ccccc2N1	4
CC(C)(C)OC(=O)NCCCC[C@@H]1C(=O)Nc2ccccc2N1Cc1ccc(C(=O)NO)cc1	34
O=C(NO)c1ccc(CN2C(=O)CNC(=O)[C@H]2Cc2cccs2)cc1	22

tested on: T-24; assay: Induction of histone H3 acetylation in human T24 cells; type: functional, cell-based

Compound	EC50 [nM]
O=C(NO)c1ccc(CN2C(=O)CNC(=O)[C@H]2Cc2ccccc2)cc1	23000
O=C(NO)c1ccc(CN2c3ccccc3NC(=O)[C@H]2Cc2ccccc2)cc1	520
O=C(NO)c1ccc(CN2c3ccccc3NC(=O)[C@@H]2Cc2ccccc2)cc1	1900
O=C(NO)c1ccc(CN2c3ccccc3NC(=O)[C@@H]2Cc2cccs2)cc1	2300
CC(/C=C/C(=O)NO)=C\[C@@H](C)C(=O)c1ccc(N(C)C)cc1 (racemic) [TRICHOSTATIN]	10
O=C(NO)c1ccc(CN2C(=O)CNC(=O)[C@H]2Cc2c[nH]c3ccccc23)cc1	12100
O=C(NO)c1ccc(CN2c3ccccc3NC(=O)[C@H]2Cc2cccs2)cc1	1220
CC(C)(C)Oc1ccc(C[C@@H]2C(=O)Nc3ccccc3N2Cc2ccc(C(=O)NO)cc2)cc1	2750
O=C1CN(Cc2ccc(C(=O)NO)cc2)c2ccccc2N1	3580
CC(C)(C)OC(=O)NCCCC[C@@H]1C(=O)Nc2ccccc2N1Cc1ccc(C(=O)NO)cc1	6750
O=C(NO)c1ccc(CN2C(=O)CNC(=O)[C@H]2Cc2cccs2)cc1	9000

target: T1, Histone deacetylase 8 (Homo sapiens, UniProt Q9BY41); assay: Inhibition of human recombinant histone deacetylase 8
T1 sequence (Q9BY41 whole entry): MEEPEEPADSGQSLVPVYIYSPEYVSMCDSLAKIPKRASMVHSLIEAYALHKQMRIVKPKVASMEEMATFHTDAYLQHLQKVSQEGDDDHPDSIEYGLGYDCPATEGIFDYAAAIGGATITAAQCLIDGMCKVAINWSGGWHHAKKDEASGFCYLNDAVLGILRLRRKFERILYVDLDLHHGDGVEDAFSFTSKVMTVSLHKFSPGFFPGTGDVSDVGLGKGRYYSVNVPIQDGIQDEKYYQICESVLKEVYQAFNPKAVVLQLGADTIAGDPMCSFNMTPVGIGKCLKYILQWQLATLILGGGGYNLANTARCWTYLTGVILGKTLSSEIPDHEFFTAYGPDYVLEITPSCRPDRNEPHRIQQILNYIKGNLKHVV

Compound	IC50 [nM]
O=C(NO)c1ccc(CN2C(=O)CNC(=O)[C@H]2Cc2ccccc2)cc1	2340
O=C(NO)c1ccc(CN2c3ccccc3NC(=O)[C@H]2Cc2ccccc2)cc1	530
O=C(NO)c1ccc(CN2c3ccccc3NC(=O)[C@@H]2Cc2ccccc2)cc1	210
O=C(NO)c1ccc(CN2c3ccccc3NC(=O)[C@H]2CCc2ccccc2)cc1	640
O=C(NO)c1ccc(CN2c3ccccc3NC(=O)[C@@H]2Cc2cccs2)cc1	1190
O=C(NO)c1ccc(CN2c3ccccc3NC(=O)[C@H]2Cc2ccc(O)cc2)cc1	730
O=C(NO)c1ccc(CN2c3ccccc3NC(=O)[C@H]2Cc2ccc(F)c(F)c2)cc1	420
O=C(NO)c1ccc(CN2C(=O)CNC(=O)[C@H]2Cc2c[nH]c3ccccc23)cc1	1210
O=C(NO)c1ccc(CN2c3ccccc3NC(=O)[C@H]2Cc2cccs2)cc1	690
CC(C)(C)Oc1ccc(C[C@@H]2C(=O)Nc3ccccc3N2Cc2ccc(C(=O)NO)cc2)cc1	250
O=C1CN(Cc2ccc(C(=O)NO)cc2)c2ccccc2N1	520
CC(C)(C)OC(=O)NCCCC[C@@H]1C(=O)Nc2ccccc2N1Cc1ccc(C(=O)NO)cc1	1150
O=C(NO)c1ccc(CN2C(=O)CNC(=O)[C@H]2Cc2cccs2)cc1	440

tested on: T-24; assay: Selectivity ratio of EC50 for histone H3 acetylation to EC50 for alpha-tubulin acetylation in human T24 cells

Compound	Selectivity Index	Ratio EC50
O=C(NO)c1ccc(CN2C(=O)CNC(=O)[C@H]2Cc2ccccc2)cc1	>13	
O=C(NO)c1ccc(CN2c3ccccc3NC(=O)[C@H]2Cc2ccccc2)cc1	>13	
O=C(NO)c1ccc(CN2c3ccccc3NC(=O)[C@H]2Cc2cccs2)cc1	>13	
CC(C)(C)Oc1ccc(C[C@@H]2C(=O)Nc3ccccc3N2Cc2ccc(C(=O)NO)cc2)cc1	>13	
O=C(CCCCCCC(=O)Nc1ccc([C@H]2O[C@@H](CSc3nc(-c4ccccc4)c(-c4ccccc4)o3)C[C@@H](c3ccc(CO)cc3)O2)cc1)NO [TUBACIN]	75	
CC(C)(C)OC(=O)NCCCC[C@@H]1C(=O)Nc2ccccc2N1Cc1ccc(C(=O)NO)cc1		75

species: Homo sapiens; assay: Selectivity ratio of IC50 for human recombinant histone deacetylase 8 to IC50 for human recombinant histone deacetylase 6

Compound	Ratio IC50
O=C(NO)c1ccc(CN2C(=O)CNC(=O)[C@H]2Cc2ccccc2)cc1	14
O=C(NO)c1ccc(CN2c3ccccc3NC(=O)[C@H]2Cc2ccccc2)cc1	53
O=C(NO)c1ccc(CN2c3ccccc3NC(=O)[C@@H]2Cc2ccccc2)cc1	1
O=C(NO)c1ccc(CN2c3ccccc3NC(=O)[C@H]2CCc2ccccc2)cc1	49
O=C(NO)c1ccc(CN2c3ccccc3NC(=O)[C@@H]2Cc2cccs2)cc1	4
O=C(NO)c1ccc(CN2c3ccccc3NC(=O)[C@H]2Cc2ccc(O)cc2)cc1	91
O=C(NO)c1ccc(CN2c3ccccc3NC(=O)[C@H]2Cc2ccc(F)c(F)c2)cc1	10
O=C(NO)c1ccc(CN2C(=O)CNC(=O)[C@H]2Cc2c[nH]c3ccccc23)cc1	11
O=C(NO)c1ccc(CN2c3ccccc3NC(=O)[C@H]2Cc2cccs2)cc1	17
CC(C)(C)Oc1ccc(C[C@@H]2C(=O)Nc3ccccc3N2Cc2ccc(C(=O)NO)cc2)cc1	5
O=C1CN(Cc2ccc(C(=O)NO)cc2)c2ccccc2N1	3
CC(C)(C)OC(=O)NCCCC[C@@H]1C(=O)Nc2ccccc2N1Cc1ccc(C(=O)NO)cc1	27
O=C(NO)c1ccc(CN2C(=O)CNC(=O)[C@H]2Cc2cccs2)cc1	3

tested on: T-24; assay: Induction of alpha tubulin acetylation in human T24 cells; type: functional, cell-based

Compound	EC50 [nM]
O=C(NO)c1ccc(CN2C(=O)CNC(=O)[C@H]2Cc2ccccc2)cc1	1490
O=C(NO)c1ccc(CN2c3ccccc3NC(=O)[C@H]2Cc2ccccc2)cc1	40
O=C(NO)c1ccc(CN2c3ccccc3NC(=O)[C@@H]2Cc2ccccc2)cc1	320
O=C(NO)c1ccc(CN2c3ccccc3NC(=O)[C@@H]2Cc2cccs2)cc1	230
CC(/C=C/C(=O)NO)=C\[C@@H](C)C(=O)c1ccc(N(C)C)cc1 (racemic) [TRICHOSTATIN]	10
O=C(NO)c1ccc(CN2C(=O)CNC(=O)[C@H]2Cc2c[nH]c3ccccc23)cc1	2870
O=C(NO)c1ccc(CN2c3ccccc3NC(=O)[C@H]2Cc2cccs2)cc1	70
CC(C)(C)Oc1ccc(C[C@@H]2C(=O)Nc3ccccc3N2Cc2ccc(C(=O)NO)cc2)cc1	80
O=C1CN(Cc2ccc(C(=O)NO)cc2)c2ccccc2N1	1010
CC(C)(C)OC(=O)NCCCC[C@@H]1C(=O)Nc2ccccc2N1Cc1ccc(C(=O)NO)cc1	90
O=C(NO)c1ccc(CN2C(=O)CNC(=O)[C@H]2Cc2cccs2)cc1	2000

target: T2, Protein deacetylase HDAC6 (Homo sapiens, UniProt Q9UBN7); assay: not given
T2 sequence (Q9UBN7 whole entry): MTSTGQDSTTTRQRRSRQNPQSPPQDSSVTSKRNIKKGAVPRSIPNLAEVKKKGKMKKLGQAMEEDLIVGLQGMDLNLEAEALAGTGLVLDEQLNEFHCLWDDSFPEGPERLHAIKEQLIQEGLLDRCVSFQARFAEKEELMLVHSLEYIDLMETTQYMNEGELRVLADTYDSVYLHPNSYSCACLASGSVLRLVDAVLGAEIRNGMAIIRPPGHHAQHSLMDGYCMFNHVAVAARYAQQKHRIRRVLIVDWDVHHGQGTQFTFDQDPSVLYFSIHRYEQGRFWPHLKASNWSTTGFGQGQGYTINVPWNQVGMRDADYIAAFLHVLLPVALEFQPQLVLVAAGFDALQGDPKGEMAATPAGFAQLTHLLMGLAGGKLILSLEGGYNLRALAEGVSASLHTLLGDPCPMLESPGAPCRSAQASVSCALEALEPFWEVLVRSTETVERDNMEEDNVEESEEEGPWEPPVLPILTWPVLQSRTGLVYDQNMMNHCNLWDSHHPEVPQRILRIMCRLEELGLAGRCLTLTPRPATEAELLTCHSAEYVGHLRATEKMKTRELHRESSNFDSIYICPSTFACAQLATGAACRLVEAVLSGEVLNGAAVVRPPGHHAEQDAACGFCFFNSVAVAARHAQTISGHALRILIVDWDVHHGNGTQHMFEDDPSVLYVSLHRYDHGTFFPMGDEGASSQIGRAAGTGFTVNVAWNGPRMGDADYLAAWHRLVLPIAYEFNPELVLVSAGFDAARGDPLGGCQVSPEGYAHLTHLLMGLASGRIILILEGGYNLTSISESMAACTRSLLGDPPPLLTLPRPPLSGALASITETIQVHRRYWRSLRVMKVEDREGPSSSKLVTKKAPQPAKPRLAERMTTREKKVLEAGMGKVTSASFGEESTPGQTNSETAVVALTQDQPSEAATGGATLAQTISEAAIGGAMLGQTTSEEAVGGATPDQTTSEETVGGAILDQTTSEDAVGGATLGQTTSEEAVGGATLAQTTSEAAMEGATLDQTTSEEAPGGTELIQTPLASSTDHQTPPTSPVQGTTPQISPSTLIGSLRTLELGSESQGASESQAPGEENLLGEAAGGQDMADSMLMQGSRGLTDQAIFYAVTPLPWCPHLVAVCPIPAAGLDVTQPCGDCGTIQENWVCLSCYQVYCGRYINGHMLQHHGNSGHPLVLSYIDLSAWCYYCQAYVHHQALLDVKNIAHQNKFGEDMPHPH

Compound	IC50 [nM]
O=C(NO)c1ccc(CN2C(=O)CNC(=O)[C@H]2Cc2ccccc2)cc1	170
O=C(NO)c1ccc(CN2c3ccccc3NC(=O)[C@H]2Cc2ccccc2)cc1	10
O=C(NO)c1ccc(CN2c3ccccc3NC(=O)[C@@H]2Cc2ccccc2)cc1	220
O=C(NO)c1ccc(CN2c3ccccc3NC(=O)[C@H]2CCc2ccccc2)cc1	10
O=C(NO)c1ccc(CN2c3ccccc3NC(=O)[C@@H]2Cc2cccs2)cc1	310
O=C(NO)c1ccc(CN2c3ccccc3NC(=O)[C@H]2Cc2ccc(O)cc2)cc1	10
O=C(NO)c1ccc(CN2c3ccccc3NC(=O)[C@H]2Cc2ccc(F)c(F)c2)cc1	40
O=C(NO)c1ccc(CN2C(=O)CNC(=O)[C@H]2Cc2c[nH]c3ccccc23)cc1	110
O=C(NO)c1ccc(CN2c3ccccc3NC(=O)[C@H]2Cc2cccs2)cc1	40
CC(C)(C)Oc1ccc(C[C@@H]2C(=O)Nc3ccccc3N2Cc2ccc(C(=O)NO)cc2)cc1	50
O=C1CN(Cc2ccc(C(=O)NO)cc2)c2ccccc2N1	150
CC(C)(C)OC(=O)NCCCC[C@@H]1C(=O)Nc2ccccc2N1Cc1ccc(C(=O)NO)cc1	40
O=C(NO)c1ccc(CN2C(=O)CNC(=O)[C@H]2Cc2cccs2)cc1	160

Reference: ChEMBL document CHEMBL1143301, “Novel HDAC6 isoform selective chiral small molecule histone deacetylase inhibitors” (Bioorg Med Chem Lett, 2009)
